From US9598441B2, “Therapeutic compounds and methods” (Wayne State University, priority 2011, dated 2017)

Tested on: HBC cells transfected with scrambled, CARP-1 or Cdh1 SiRNAs
Assay: MTT assay in SiRNA-transfected cells
Assay type: cell-based, human
Experimental: Logarithmically growing cells were either untreated or treated with different agents for various time periods. The cells were lysed to prepare protein extracts. IP was carried out by incubating approximately 1 mg of the protein lysate with appropriate antibodies, and the immunoprecipitates or cell lysates were then electrophoresed on 9-12% SDS-polyacrylamide gels, and transferred to nitrocellulose membranes. The membranes were subsequently probed with various antibodies to determine expression/presence of the corresponding proteins. The cell growth inhibition was assessed by using MTT assay. Briefly, MTT (3-[4,5-Dimethylthiazol-2-yl]-2,5diphenyltetrazolium bromide) was dissolved in sterile 1×PBS to prepare a stock solution of 5 mg/ml. The solution was subsequently filtered through 0.2 μm filter and stored at 2-8° C. 4−5×10^2 cells were seeded in 96-well plates. After 72 h incubation with or without different agents, MTT stock solution was added to each culture being assayed to equal one tenth the original culture volume, followed by incubation of cells at 37° C. for another 2 h. At the end of the incubation, the media was removed and cells were treated with 100-200 μl of DMSO to solubilize the dye. The assessment of the live cells was derived by measuring the absorbance of the converted dye at wavelength of 570 nm.
To test this possibility, cells were transfected with 100 nM each of the CARP-1 or the scrambled SiRNAs as detailed in methods. The SiRNA-transfected cells were then either untreated or treated with 20 μM CFM-4 for 24 h followed by determination of levels of CARP-1 and cyclin B1 proteins. […] In a separate experiment, cells were similarly transfected with CARP-1 SiRNA or scrambled SiRNAs followed by treatment with CFM-4 essentially as in FIG. 6A, and cell viabilities were determined by the MTT assay. […] In a separate experiment, cells were similarly transfected with Cdh1 SiRNA or scrambled SiRNAs followed by treatment with CFM-4 essentially as in FIG. 6C, and cell viabilities were determined by the MTT assay.

O=C1N(Cc2ccccc2Cl)c2ccccc2C12NN=C(c1ccccc1)S2 (stereo not drawn) [CFM-4, 1-(2-chlorobenzyl)-5′-phenyl-3′H-spiro[indoline-3,2′-[1,3,4]thiadiazol]-2-one]
growth of cells transfected with scrambled SiRNAs (MTT) (20 μM CFM-4, 24 h): suppressed growth | growth inhibition in CARP-1 SiRNA-transfected cells (MTT) (CARP-1 knockdown, 20 μM CFM-4, 24 h): blocked CFM-4-dependent inhibition of cell growth | growth inhibition in Cdh1 SiRNA-transfected cells (MTT) (Cdh1 knockdown): blocked CFM-4-dependent inhibition of HBC cell growth
